Laboratory results from ChEMBL document CHEMBL5260826, “Enzyme inhibitory activities an insight into the structure-Activity relationship of biscoumarin derivatives” (Eur J Med Chem, 2017).
≈ marks a conversion by molar mass, not a printed value.

target: DNA polymerase beta (Homo sapiens, UniProt P06746); assay: Inhibition of DNA polymerase beta (unknown origin)

Compound	IC50 [µM]
O=c1oc2ccccc2c(O)c1C(c1ccc(NC(=S)Nc2ccc([N+](=O)[O-])cc2)cc1)c1c(O)c2ccccc2oc1=O	24.7
O=c1ccc2ccc(Cc3cc4ccc(O)cc4oc3=O)cc2o1	22.5

The remaining lines, values ahead:

IC50 [µM]	Compound
122	COc1cc2c(O)c(Cc3ccc4ccc(=O)oc4c3)c(=O)oc2cc1O
94.8	O=c1ccc2ccc(Cc3c(O)c4cc(O)c(O)cc4oc3=O)cc2o1

target: T1, Alpha-glucosidase (Saccharomyces cerevisiae S288c, UniProt P53341+P38158+P07265); assay: Inhibition of Saccharomyces cerevisiae alpha-glucosidase using pNPG as substrate incubated for 30 mins by microplate reader analysis; format: protein assay

IC50 [µg/mL]	Compound
231 (≈ 326 µM)	COc1cc2c(O)c(Oc3cc(O[C@@H]4O[C@H](CO)[C@@H](O)[C@H](O)[C@H]4O[C@@H]4O[C@H](CO)[C@@H](O)[C@H](O)[C@H]4O)c4ccc(=O)oc4c3)c(=O)oc2cc1O
760 (≈ 1570 µM)	O=c1ccc2ccc(O)c(-c3c(O[C@@H]4OC(CO)[C@@H](O)C(O)C4O)ccc4ccc(=O)oc34)c2o1 (some centres not stated)
86 (≈ 244 µM)	COc1cc2cc(Oc3ccc4ccc(=O)oc4c3)c(=O)oc2cc1O [DAPHNORETIN]
49.6 (≈ 147 µM)	O=c1ccc2ccc(Oc3cc4cc(O)c(O)cc4oc3=O)cc2o1 [EDGEWORTHIN]

target: not listed separately; assay: Inhibition of HIV-1 integrase; design: species or system Human immunodeficiency virus 1

IC50 [µM]	Compound
8	O=c1oc2ccccc2c(O)c1C(c1ccc(C(c2c(O)c3ccccc3oc2=O)c2c(O)c3ccccc3oc2=O)cc1)c1c(O)c2ccccc2oc1=O

target: cAMP-dependent protein kinase (PKA) (Homo sapiens, UniProt P22694+P17612+P22612); assay: Inhibition of PKA (unknown origin) using Kemptide as substrate incubated for [gamma-32P]-ATP incubated for 5 mins by scintillation counter analysis; format: protein assay

IC50 [µM]	Compound
9.33	O=c1ccc2ccc(O)c(O)c2o1 [DAPHNETIN]

target: T1, Alpha-glucosidase; assay: Inhibition of Baker's yeast alpha-glucosidase using pNPG as substrate assessed as release of p-nitrophenol preincubated for 10 mins followed by substrate addition and measured after 30 mins by microplate reader analysis; format: protein assay

Compound	IC50 [µM]
COc1ccc(NC(=S)Nc2ccc(C(c3c(O)c4ccccc4oc3=O)c3c(O)c4ccccc4oc3=O)cc2)cc1	13.5
COc1ccccc1NC(=S)Nc1ccc(C(c2c(O)c3ccccc3oc2=O)c2c(O)c3ccccc3oc2=O)cc1	104.62
COc1cccc(NC(=S)Nc2ccc(C(c3c(O)c4ccccc4oc3=O)c3c(O)c4ccccc4oc3=O)cc2)c1	25.31

target: Protein kinase C (PKC); assay: Inhibition of PKC (unknown origin) using acetylated myelin basic protein (4 to 14 residues) as substrate incubated for [gamma-32P]-ATP incubated for 5 mins by scintillation counter analysis; format: protein assay, Homo sapiens

IC50 [µM]	Compound
25.01	O=c1ccc2ccc(O)c(O)c2o1 [DAPHNETIN]

test system: not listed separately; assay: Inhibition of urease (unknown origin)

Compound	IC50 [µM]
O=c1oc2ccccc2c(O)c1C(c1ccc[nH]1)c1c(O)c2ccccc2oc1=O	46.1
C/C=C/C(c1c(O)c2ccccc2oc1=O)c1c(O)c2ccccc2oc1=O	42.9
O=c1oc2ccccc2c(O)c1C(c1cccnc1)c1c(O)c2ccccc2oc1=O	35
O=c1oc2ccccc2c(O)c1Cc1c(O)c2ccccc2oc1=O [DICUMAROL]	15
O=c1oc2ccccc2c(O)c1C(c1c(O)c2ccccc2oc1=O)c1c[nH]c2ccccc12	48.4

target: not listed separately; assay: Inhibition of HIV-1 wild-type integrase using U5A/U5B-2 labeled double-stranded DNA as substrate by beta radiation counter analysis; design: species or system Human immunodeficiency virus 1

Compound	IC50 [µM]
COc1ccc(/C=C/C(=O)Oc2ccc(C(c3c(O)c4ccccc4oc3=O)c3c(O)c4ccccc4oc3=O)cc2)cc1OC	2.6
CC(=O)Oc1ccc(OC(C)=O)c(C(=O)Oc2ccc(C(c3c(O)c4ccccc4oc3=O)c3c(O)c4ccccc4oc3=O)cc2)c1	9.7
O=C(Oc1ccc(C(c2c(O)c3ccccc3oc2=O)c2c(O)c3ccccc3oc2=O)cc1)c1cc(O)ccc1O	25
CC(=O)Oc1ccccc1C(=O)Oc1ccc(C(c2c(O)c3ccccc3oc2=O)c2c(O)c3ccccc3oc2=O)cc1	27
O=C(Oc1ccc(C(c2c(O)c3ccccc3oc2=O)c2c(O)c3ccccc3oc2=O)cc1)c1ccccc1O	10
O=C(/C=C/c1ccc(O)c(O)c1)Oc1ccc(C(c2c(O)c3ccccc3oc2=O)c2c(O)c3ccccc3oc2=O)cc1	2.6
CC(=O)Oc1ccc(/C=C/C(=O)Oc2ccc(C(c3c(O)c4ccccc4oc3=O)c3c(O)c4ccccc4oc3=O)cc2)cc1OC(C)=O	2.6
O=C(Oc1c(C(c2ccc(O)cc2)c2c(O)c3ccccc3oc2=O)c(=O)oc2ccccc12)c1ccc(O)c(O)c1 (configuration not stated)	37
CC(=O)Oc1ccc(C(=O)Oc2ccc(C(c3c(O)c4ccccc4oc3=O)c3c(O)c4ccccc4oc3=O)cc2)cc1	4.6
O=C(Oc1ccc(C(c2c(O)c3ccccc3oc2=O)c2c(O)c3ccccc3oc2=O)cc1)c1ccc(C(c2c(O)c3ccccc3oc2=O)c2c(O)c3ccccc3oc2=O)cc1	0.49
O=C(Oc1ccc(C(c2c(O)c3ccccc3oc2=O)c2c(O)c3ccccc3oc2=O)cc1)c1cccc(O)c1	6.1
O=C(Oc1ccc(C(c2c(O)c3ccccc3oc2=O)c2c(O)c3ccccc3oc2=O)cc1)c1cc(O)cc(O)c1	53
CC(=O)Oc1cc(OC(C)=O)cc(C(=O)Oc2ccc(C(c3c(O)c4ccccc4oc3=O)c3c(O)c4ccccc4oc3=O)cc2)c1	9.3
O=C(CCCCC1CCSS1)Oc1ccc(C(c2c(O)c3ccccc3oc2=O)c2c(O)c3ccccc3oc2=O)cc1 (configuration not stated)	2.3
CC(=O)Oc1ccc(C(=O)Oc2ccc(C(c3c(O)c4ccccc4oc3=O)c3c(O)c4ccccc4oc3=O)cc2)c(OC(C)=O)c1	19
O=C(Oc1ccc(C(c2c(O)c3ccccc3oc2=O)c2c(O)c3ccccc3oc2=O)cc1)c1ccc(O)c(O)c1	1.5
CC(=O)Oc1cccc(C(=O)Oc2ccc(C(c3c(O)c4ccccc4oc3=O)c3c(O)c4ccccc4oc3=O)cc2)c1	7.1
Cc1ccc(C(=O)Oc2cc(OC(=O)c3ccc(C)cc3)cc(C(c3c(O)c4ccccc4oc3=O)c3c(O)c4ccccc4oc3=O)c2)cc1	0.58
CC(=O)Oc1ccc(C(=O)Oc2ccc(C(c3c(O)c4ccccc4oc3=O)c3c(O)c4ccccc4oc3=O)cc2)cc1OC(C)=O	1.9
Cc1ccc(C(=O)OCCN(CCOC(=O)c2ccc(C)cc2)c2ccc(C(c3c(O)c4ccccc4oc3=O)c3c(O)c4ccccc4oc3=O)cc2)cc1	1.8
O=C(Oc1ccc(C(c2c(O)c3ccccc3oc2=O)c2c(O)c3ccccc3oc2=O)cc1)c1ccc(O)cc1O	4.9
O=C(OCCN(CCOC(=O)c1ccc(Br)cc1)c1ccc(C(c2c(O)c3ccccc3oc2=O)c2c(O)c3ccccc3oc2=O)cc1)c1ccc(Br)cc1	0.96
O=C(Oc1ccc(C(c2c(O)c3ccccc3oc2=O)c2c(O)c3ccccc3oc2=O)cc1)c1ccc(O)cc1	3.2

target: not listed separately; assay: Inhibition of porcine pancreas alpha-amylase using CNP-G3 as substrate preincubated for 10 mins followed by substrate addition and measured after 30 mins by microplate reader analysis; design: species or system Sus scrofa

IC50 [µg/mL]	Compound
90 (≈ 255 µM)	COc1cc2cc(Oc3ccc4ccc(=O)oc4c3)c(=O)oc2cc1O [DAPHNORETIN]

target: T2, Hepatocyte growth factor receptor (Homo sapiens, UniProt P08581); assay: Inhibition of c-Met (unknown origin)
T2 sequence (P08581 whole entry): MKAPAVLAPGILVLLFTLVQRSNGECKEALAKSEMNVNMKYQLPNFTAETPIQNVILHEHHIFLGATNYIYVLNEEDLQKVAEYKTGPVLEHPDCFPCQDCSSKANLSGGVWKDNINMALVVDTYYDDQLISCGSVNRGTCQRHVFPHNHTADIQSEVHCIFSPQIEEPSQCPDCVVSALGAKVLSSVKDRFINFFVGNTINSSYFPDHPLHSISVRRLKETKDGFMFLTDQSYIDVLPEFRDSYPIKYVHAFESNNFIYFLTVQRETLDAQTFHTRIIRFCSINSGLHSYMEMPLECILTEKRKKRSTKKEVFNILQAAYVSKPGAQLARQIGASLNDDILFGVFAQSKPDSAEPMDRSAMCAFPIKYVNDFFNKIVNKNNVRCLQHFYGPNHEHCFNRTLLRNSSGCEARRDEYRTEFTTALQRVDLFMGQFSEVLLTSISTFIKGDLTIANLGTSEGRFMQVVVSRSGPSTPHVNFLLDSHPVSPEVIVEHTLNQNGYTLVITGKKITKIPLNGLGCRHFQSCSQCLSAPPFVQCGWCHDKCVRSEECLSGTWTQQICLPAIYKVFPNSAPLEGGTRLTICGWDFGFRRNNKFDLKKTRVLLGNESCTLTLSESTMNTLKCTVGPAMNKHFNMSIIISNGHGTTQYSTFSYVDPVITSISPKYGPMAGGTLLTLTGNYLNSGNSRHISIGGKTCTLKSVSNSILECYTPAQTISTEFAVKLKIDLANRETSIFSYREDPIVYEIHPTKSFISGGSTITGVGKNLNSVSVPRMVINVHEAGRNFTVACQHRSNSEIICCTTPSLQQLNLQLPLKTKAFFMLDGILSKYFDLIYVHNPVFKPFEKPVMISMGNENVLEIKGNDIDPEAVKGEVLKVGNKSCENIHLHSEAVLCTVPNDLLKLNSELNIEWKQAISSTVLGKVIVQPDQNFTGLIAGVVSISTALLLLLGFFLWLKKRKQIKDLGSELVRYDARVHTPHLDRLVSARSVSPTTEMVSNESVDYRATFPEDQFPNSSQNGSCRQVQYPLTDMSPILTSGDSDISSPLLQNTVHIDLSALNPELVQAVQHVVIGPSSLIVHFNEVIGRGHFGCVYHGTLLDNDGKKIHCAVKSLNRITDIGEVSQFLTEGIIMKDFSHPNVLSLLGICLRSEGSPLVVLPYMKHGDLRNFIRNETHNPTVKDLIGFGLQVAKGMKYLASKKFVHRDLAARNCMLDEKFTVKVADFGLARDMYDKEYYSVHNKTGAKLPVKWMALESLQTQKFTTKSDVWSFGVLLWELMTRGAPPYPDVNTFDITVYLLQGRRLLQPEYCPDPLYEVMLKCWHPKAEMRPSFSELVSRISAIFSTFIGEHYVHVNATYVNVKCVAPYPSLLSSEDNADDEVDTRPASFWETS

IC50 [µM]	Compound
100	O=c1cc(O)c2ccc(O)c(O)c2o1
151	O=c1oc2c(O)c(O)ccc2c(O)c1Cc1c(O)c2ccc(O)c(O)c2oc1=O

target: T2, Hepatocyte growth factor receptor; assay: Inhibition of c-Met (unknown origin) using poly (Glu,Tyr) at 4:1 ratio as substrate incubated for 60 mins by ELISA

IC50 [µM]	Compound
0.03	CCCCCCC(NC(=O)c1cc2ccc(O)c(O)c2oc1=O)C(=O)Nc1cc2ccc(O)c(O)c2oc1=O (configuration not stated)
0.107	CC(C)CC(NC(=O)c1cc2ccc(O)c(O)c2oc1=O)C(=O)Nc1cc2ccc(O)c(O)c2oc1=O (configuration not stated)
